For assay [1], the target named is T1, recombinant human TGF-β1 (Homo sapiens, UniProt P01137).
T1 construct: purchased R&D systems
Kind of assay: SBE reporter assay in SBE reporter-HEK293 cells, TGF-β1 stimulation. It counts as cell-based. An outline of the steps: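 SBE luciferase reporter HEK293 cells in 0.5% FBS medium, preincubated 20 min with peptide, then stimulated 18 h with 0.13 nM recombinant human TGF-β1. Luminescence read; inhibition scaled with maximal TGF-β signal as 0% and unstimulated as 100%.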
(In general: A reporter such as luciferase makes a cellular process visible.)

In assay [2] the target is T1, recombinant human TGF-β1. Kind of assay: SPR intermolecular interaction test, TGF-β1 immobilized on CM3 sensor chip (Biacore T200). The class given is binding. The conditions noted are these: Single Cycle Kinetics, human TGF-β1.
Assay [3] deals with T2, recombinant human TGF-β2 (Homo sapiens, UniProt P61812).
T2 construct: purchased R&D systems
T2 sequence (P61812 303-414 limits assumed): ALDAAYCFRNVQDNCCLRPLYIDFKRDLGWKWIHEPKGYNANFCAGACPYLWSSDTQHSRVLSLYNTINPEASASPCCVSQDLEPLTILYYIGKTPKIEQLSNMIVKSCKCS
Put plainly: SBE reporter assay in SBE reporter-HEK293 cells, TGF-β2 stimulation. It counts as cell-based. The conditions noted are these: FIG. 1. As to the method: In addition, the selectivity of each peptide for TGF-β isoforms (TGF-β1 and β2) is checked. For this purpose, the inhibitory activity against TGF-β1 and TGF-β2 was evaluated using the peptide consisting of the amino acid sequence set forth in SEQ ID NO: 13 synthesized in Example 2.
SBE reporter-HEK293 cells were cultured in E-MEM (Wako) containing 10% FBS (Sigma). The cells were detached using Accutase (Innovative Cell Technologies), suspended in E-MEM containing 0.5% FBS, seeded onto a 96-well plate(s) at a concentration of 45,000 cells per well, and cultured overnight. The next day, the peptide was added and allowed to stand for 20 min, and recombinant human TGF-β1 (R&D systems) or recombinant human TGF-β2 (R&D systems) was then added at 0.13 nM and cultured for 18 hours.
Thereafter, luciferase assay ONE-Glo reagent was added to each well and the plate was shaken for 5 min. A SpectraMax Paradigm multimode microplate reader (Molecular Devices) was then used for signal detection. The obtained signals were analyzed by GraphPad Prism. The inhibitory activity of the peptide was calculated while the maximum signal induced by TGF-β was set to 0% inhibition and no stimulation was set to 100% inhibition.

For assay [4], the target named is T3, recombinant human TGF-β2 (R&D systems) (human, UniProt P61812 303-414).
T3 construct: Bought protein
T3 sequence (looked up): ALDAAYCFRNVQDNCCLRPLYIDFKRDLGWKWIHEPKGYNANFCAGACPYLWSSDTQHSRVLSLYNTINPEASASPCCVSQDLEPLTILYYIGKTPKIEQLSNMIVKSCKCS
Kind of assay: SPR, TGF-β2 immobilised, single cycle kinetics; target TGF-β2, not TGF-β1.

The target of assay [5] is T4, recombinant human TGF-β1 (R&D systems) (human, UniProt P01137 279-390). Put plainly: cell-based or functional assay.
In assay [6] the target is T4, recombinant human TGF-β1 (R&D systems). Put plainly: cell-based or functional assay. The source holds these as a separate data set.
For assay [7], the target named is T3, recombinant human TGF-β2 (R&D systems). Put plainly: cell-based or functional assay.
In assay [8] the target is T4, recombinant human TGF-β1 (R&D systems). Put plainly: cell-based or functional assay. This is another data set of the same source.

Starred links: 1 amine or outer side, 2 acyl side, 3 side chain; linkers in the order of their positions; H or OH if unused. Positions of bridges follow the written chain, without caps; N, C: chain ends. Non-standard residues stand in square brackets, D forms with d. Residues, ends and D or L forms follow the SMILES beside them. Groups on a side chain read outwards from the residue. *: point of attachment. KCOpipzaa = N6-(4-(carboxymethyl)piperazine-1-carbonyl)-L-lysine, O=C(NCCCC[C@H](N[*:1])C(=O)[*:2])N1CCN(CC(=O)[*:3])CC1; Piperazinyl(4-CH2COOH) = O=C(O)CN1CCN(*)CC1; 1Nal = N[C@@H](Cc1cccc2ccccc12)C(=O)O; Gly(NCH2CH2Ph) = O=C(O)CNCCc1ccccc1; 4Pal = N[C@@H](Cc1ccncc1)C(=O)O; CO = O=C([*:1])[*:2]

T1 sequence (P01137 279-390 limits assumed): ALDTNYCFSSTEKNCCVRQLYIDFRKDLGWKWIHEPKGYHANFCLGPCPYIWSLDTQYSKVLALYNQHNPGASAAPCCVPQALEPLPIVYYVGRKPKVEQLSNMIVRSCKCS
T4 sequence (P01137 279-390 limits assumed): as above

Broadly, the inhibition is the change of the read-out against control, counted positive when it falls. The Kd is the constant that tells how readily two partners part at equilibrium. For the molecule `CC(C)[C@@H]1NC(=O)CN(CCc2ccccc2)C(=O)[C@H](CC(=O)O)NC(=O)[C@H](CC(=O)O)NC(=O)[C@H](Cc2ccncc2)NC(=O)[C@H](C(C)C)NC(=O)[C@H](CC(N)=O)NC(=O)[C@H](C(C)C)NC(=O)[C@H](C(C)C)NC(=O)[C@H](Cc2cccc3ccccc23)NC(=O)[C@H](Cc2ccccc2)NC(=O)CSC[C@@H](C(=O)NCC(N)=O)NC(=O)[C@H](CCCCNC(=O)N2CCN(CC(=O)O)CC2)NC(=O)[C@H](Cc2c[nH]cn2)NC(=O)[C@H](Cc2ccc(O)cc2)NC(=O)[C@H](Cc2cccc3ccccc23)NC1=O` [TGFb1_012] ({CH2CO}-F[1Nal]VVNV[4Pal]DD[Gly(NCH2CH2Ph)]V[1Nal]YHK([CO-Piperazinyl(4-CH2COOH)])CG-NH2; thioether N-16), the “TGF-β1 antagonist / inhibitory activity (in words)” value in assay [1] (SBE reporter assay, FIG. 1 and Tables 2 and 3) is “inhibits not only TGF-β1 but also TGF-β2”. The inhibition at 62 pM in assay [1] (peptide 0.062 nM, TGF-β1 0.13 nM, 18 hours) amounted to 4.18%. In addition, in assay [1] (peptide 0.075 nM, TGF-β1 0.13 nM, 18 hours), the inhibition at 75 pM worked out at 10.1%. Besides, the inhibition at 0.000185 µM in assay [1] (peptide 0.185 nM, TGF-β1 0.13 nM, 18 hours) came to 19.8%. Besides, the inhibition at 0.00056 µM in assay [1] (peptide 0.56 nM, TGF-β1 0.13 nM, 18 hours) came out at 48.4%. Besides, in assay [1] (peptide 0.75 nM, TGF-β1 0.13 nM, 18 hours), the inhibition at 0.00075 µM is 65.2%. Besides, in assay [1] (peptide 1.7 nM, TGF-β1 0.13 nM, 18 hours), the inhibition at 0.0017 µM was determined as 80.9%. Moreover, in assay [1] (peptide 5.0 nM, TGF-β1 0.13 nM, 18 hours), the inhibition at 0.005 µM is 94.4%. In addition, in assay [1] (peptide 7.5 nM, TGF-β1 0.13 nM, 18 hours), the inhibition at 0.0075 µM was 96%. Besides, the inhibition at 0.015 µM in assay [1] (peptide 15.0 nM, TGF-β1 0.13 nM, 18 hours) was found to be 98.7%. Further, in assay [1] (peptide 75.0 nM, TGF-β1 0.13 nM, 18 hours), the inhibition at 0.075 µM stood at 99.5%. For the same molecule, the equilibrium dissociation constant (Kd) in assay [2] turned out to be 0.86 nM. The “inhibitory activity against TGF-β2 (in words)” value in assay [3] is “inhibits not only TGF-β1 but also TGF-β2”.

B1: TGFb1_012 (peptide)
peptide: {CH2CO}-F[1Nal]VVNV[4Pal]DD[Gly(NCH2CH2Ph)]V[1Nal]YH[KCOpipzaa]CG-NH2
modifications: thioether N-16
SMILES: CC(C)[C@@H]1NC(=O)CN(CCc2ccccc2)C(=O)[C@H](CC(=O)O)NC(=O)[C@H](CC(=O)O)NC(=O)[C@H](Cc2ccncc2)NC(=O)[C@H](C(C)C)NC(=O)[C@H](CC(N)=O)NC(=O)[C@H](C(C)C)NC(=O)[C@H](C(C)C)NC(=O)[C@H](Cc2cccc3ccccc23)NC(=O)[C@H](Cc2ccccc2)NC(=O)CSC[C@@H](C(=O)NCC(N)=O)NC(=O)[C@H](CCCCNC(=O)N2CCN(CC(=O)O)CC2)NC(=O)[C@H](Cc2c[nH]cn2)NC(=O)[C@H](Cc2ccc(O)cc2)NC(=O)[C@H](Cc2cccc3ccccc23)NC1=O
notes: cyclic peptide; C-terminal G is a linker; also called TGF-β1_012
For the molecule B1, the Kd in assay [4] worked out at 2 nM. Moreover, in assay [5], the “SBE reporter % inhibition, peptide 0.075 nM” value was 10.1%; the “SBE reporter % inhibition, peptide 0.75 nM” value was found to be 65.2%; the “SBE reporter % inhibition, peptide 7.5 nM” value turned out to be 96%; the “SBE reporter % inhibition, peptide 75.0 nM” value is 99.5%. Also, in assay [6], the “SBE reporter % inhibition, peptide 0.062 nM” value stood at 4.18%; the “SBE reporter % inhibition, peptide 0.185 nM” value amounted to 19.8%; the “SBE reporter % inhibition, peptide 0.56 nM” value is 48.4%; the “SBE reporter % inhibition, peptide 1.7 nM” value amounted to 80.9%. Besides, in assay [6], the “SBE reporter % inhibition, peptide 5.0 nM” value came out at 94.4% and the “SBE reporter % inhibition, peptide 15.0 nM” value was 98.7%. Further, the “IC50 (read off the curve) (SBE reporter assay in SBE reporter-HEK293 cells; TGF-β2 at 0.13 nM)” value in assay [7] is around 6 nM. In assay [8], the “IC50 (read off the curve) (SBE reporter assay in SBE reporter-HEK293 cells; TGF-β1 at 0.13 nM)” value was around 0.7 nM.

For the origin of these results see patent US20250034212A1, “PEPTIDE” (PEPTIDREAM INC., priority 2021, published 2025).
